Experimental data from BindingDB's records for doi:10.1021/jm021084k (2003).

What was measured:
[1] = biological target: Histamine H3 receptor (Cavia porcellus, UniProt Q9JI35); assay: Potency at histamine H3 receptor subtype, was tested on guinea pig right ileum
[2] = biological target: Histamine H1 receptor (Cavia porcellus, UniProt P31389); assay: Potency at histamine H1 receptor subtype, was tested on guinea pig right ileum
[3] = biological target: Histamine H2 receptor (Cavia porcellus, UniProt P47747); assay: Potency at histamine H2 receptor subtype, was tested on guinea pig right atrium
Chain of Histamine H2 receptor (P47747 whole entry): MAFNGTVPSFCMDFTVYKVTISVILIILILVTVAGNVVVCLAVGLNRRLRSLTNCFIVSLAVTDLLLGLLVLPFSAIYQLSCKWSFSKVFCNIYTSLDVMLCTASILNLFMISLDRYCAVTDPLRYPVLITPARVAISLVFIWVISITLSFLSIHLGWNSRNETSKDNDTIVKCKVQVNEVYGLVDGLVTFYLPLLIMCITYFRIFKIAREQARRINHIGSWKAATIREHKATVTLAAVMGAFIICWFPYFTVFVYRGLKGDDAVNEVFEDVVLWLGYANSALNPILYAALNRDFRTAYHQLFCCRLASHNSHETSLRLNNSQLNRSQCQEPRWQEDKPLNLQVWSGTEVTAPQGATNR

Chain of Histamine H1 receptor (P31389 whole entry): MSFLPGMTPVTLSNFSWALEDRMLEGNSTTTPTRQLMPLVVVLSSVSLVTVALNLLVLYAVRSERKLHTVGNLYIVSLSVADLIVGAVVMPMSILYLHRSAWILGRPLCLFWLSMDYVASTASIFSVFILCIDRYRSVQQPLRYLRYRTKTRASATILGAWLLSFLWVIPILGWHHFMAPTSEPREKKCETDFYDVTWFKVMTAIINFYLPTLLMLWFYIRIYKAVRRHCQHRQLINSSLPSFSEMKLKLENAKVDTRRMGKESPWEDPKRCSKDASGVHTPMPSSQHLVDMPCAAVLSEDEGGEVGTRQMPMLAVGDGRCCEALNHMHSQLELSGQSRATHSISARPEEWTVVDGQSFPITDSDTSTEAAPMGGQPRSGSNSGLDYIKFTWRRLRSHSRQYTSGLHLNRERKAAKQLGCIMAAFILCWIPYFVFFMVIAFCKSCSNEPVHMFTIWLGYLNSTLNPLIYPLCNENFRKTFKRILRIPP
Chain of Histamine H3 receptor (Q9JI35 whole entry): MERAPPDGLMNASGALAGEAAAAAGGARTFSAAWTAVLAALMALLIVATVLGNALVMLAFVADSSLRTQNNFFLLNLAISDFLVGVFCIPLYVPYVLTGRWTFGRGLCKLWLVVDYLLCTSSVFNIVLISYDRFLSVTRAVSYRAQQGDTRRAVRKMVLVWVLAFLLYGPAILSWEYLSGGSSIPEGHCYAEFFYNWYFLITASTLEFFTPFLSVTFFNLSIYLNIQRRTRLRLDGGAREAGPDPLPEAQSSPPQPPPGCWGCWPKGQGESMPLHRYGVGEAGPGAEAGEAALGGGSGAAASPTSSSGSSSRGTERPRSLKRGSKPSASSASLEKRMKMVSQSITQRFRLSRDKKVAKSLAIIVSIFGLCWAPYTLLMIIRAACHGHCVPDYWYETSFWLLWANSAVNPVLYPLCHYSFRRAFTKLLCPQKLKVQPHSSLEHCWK

Kd [1]: 0.0851 µM | Kd [2]: 7.94 µM | Kd [3]: 14.1 µM
SMILES: CC(N=O)c1ccc(OCc2ccc(CN3CCCCC3)cc2)cc1 (stereo not drawn) [1-[4-(4-Piperidin-1-ylmethyl-benzyloxy)-phenyl]-ethanone oxime]
